The assay relates to A549 cells. The assay can be described thus: Bromodeoxyuridine (BrdU) proliferation assay. Format: cell-based, human. To be noted: for IC50: BrdU ELISA 48 hours after addition of compound, tested 0.03-10 uM, cell line not given (A549 method; SW-480 and MDA-MB-231 also used), read-out: Assay Result (IC50μM); for Activity ranking: most active compounds of the invention / Activity ranking: particularly active examples of the compounds of the invention: antiproliferative activity. As to the method: In order to determine the antiproliferative activity of microtubule inhibitors, A549 cells were plated in 96 well plates at 2000 cells/well 24 hours prior to the addition of a compound of the invention in 80 ul growth media (F12K, 10% FBS, Pen/Strep). Prior to addition to cells, compounds were solubilized in 100% DMSO to 5 mM and serially diluted in 6 semi-log steps in 100% DMSO. The diluted compounds were added to cells by two 15.8-fold dilution steps, the first being a dilution into a 23% ethanol/H2O mixture and the second being a dilution into growth media. Finally, these dilutions were followed by a 1:1 dilution onto cells. The resulting final solvent concentration was 0.2% DMSO/0.75% ethanol. Compounds were tested at final concentrations of 10, 3, 1, 0.3, 0.1 and 0.03 uM. Forty-eight hours after the addition of compound, the effects on cellular proliferation were measured using a cell proliferation BrdU ELISA (Roche Molecular Biochemicals, Cat.#1 669 915).

Where two headings read alike, the source gives them in different places.

As for `S=C(NNc1ncnc2cc(-c3ccccc3)sc12)Nc1ccccc1` [Compound 2], the IC50 was 0.39 µM, the “Activity ranking: most active compounds of the invention” value (“Activity ranking: most active compounds” below) was “most active” and the “Activity ranking: particularly active examples of the compounds of the invention” value was “particularly active”.
Regarding `FC(F)(F)c1ccccc1NC(=S)NNc1ncnc2cc(-c3ccccc3)sc12` [Compound 4], the “Activity ranking: most active compounds” value is “most active” and the “Activity ranking: particularly active examples of the compounds of the invention” value is listed as “particularly active”. In addition, the IC50 (Homo sapiens, A549, 48 h) came out at 0.904 µM.
As for `COc1cccc(NC(=S)NNc2ncnc3cc(-c4ccccc4)sc23)c1` [Compound 5], the “Activity ranking: most active compounds” value was “most active” and the “Activity ranking: particularly active examples of the compounds of the invention” value is “particularly active”. Besides, the IC50 (Homo sapiens, A549, 48 h) was 0.49 µM.
Turning to `COc1ccccc1NC(=S)NNc1ncnc2cc(-c3ccccc3)sc12` [Compound 6], the “Activity ranking: most active compounds” value is reported as “most active” and the “Activity ranking: particularly active examples of the compounds of the invention” value was “particularly active”. The IC50 (Homo sapiens, A549, 48 h) came out at 0.329 µM.
As for `CCOC(=O)c1ccccc1NC(=S)NNc1ncnc2cc(-c3ccccc3)sc12` [Compound 10], the “Activity ranking: particularly active examples of the compounds of the invention” value is recorded as “particularly active”. The IC50 (Homo sapiens, A549, 48 h) was determined as 1.33 µM.
Take `CCOC(=O)c1ccccc1NC(=S)NNc1ncnc2cc(-c3ccccc3)sc12` [Compound 11]: the IC50 was found to be 2.2 µM and the “Activity ranking: particularly active examples of the compounds of the invention” value was “particularly active”.
On to `COc1ccc(NC(=S)NNc2ncnc3cc(-c4ccccc4)sc23)c(OC)c1` [Compound 13], for which the IC50 came out at 0.38 µM, the “Activity ranking: most active compounds” value was “most active” and the “Activity ranking: particularly active examples of the compounds of the invention” value is reported as “particularly active”.
On to `COc1ccc(NC(=S)NNc2ncnc3cc(-c4ccccc4)sc23)c(OC)c1` [Compound 14], for which the IC50 worked out at 26.7 µM.
Consider `COc1ccc(NC(=S)NNc2ncnc3cc(-c4ccccc4)sc23)cc1OC` [Compound 15], for which the “Activity ranking: particularly active examples of the compounds of the invention” value is given as “particularly active”. The IC50 (Homo sapiens, A549, 48 h) was 6.7 µM.
On to `COc1ccc(OC)c(NC(=S)NNc2ncnc3cc(-c4ccccc4)sc23)c1` [Compound 16], for which the “Activity ranking: most active compounds” value is on record as “most active” and the “Activity ranking: particularly active examples of the compounds of the invention” value was “particularly active”. Further, the IC50 (Homo sapiens, A549, 48 h) worked out at 0.998 µM.
As for `COc1cc([N+](=O)[O-])ccc1NC(=S)NNc1ncnc2cc(-c3ccccc3)sc12` [Compound 17], the IC50 came out at 5.11 µM and the “Activity ranking: particularly active examples of the compounds of the invention” value is “particularly active”.
For `COc1cc([N+](=O)[O-])ccc1NC(=S)NNc1ncnc2cc(-c3ccccc3)sc12` [Compound 18], in that order: 10.7 µM and “particularly active”.
For `S=C(NNc1ncnc2cc(-c3ccccc3)sc12)NC1CCCC1` [Compound 20], the “Activity ranking: most active compounds” value is recorded as “most active” and the “Activity ranking: particularly active examples of the compounds of the invention” value is on record as “particularly active”. Further, where the note is “Homo sapiens, A549, 48 h”, the IC50 was determined as 0.071 µM.
Consider `S=C(NNc1ncnc2cc(-c3ccccc3)sc12)N[C@@H]1CCC[C@H]1OCc1ccccc1` [Compound 22], for which the “Activity ranking: particularly active examples of the compounds of the invention” value is “particularly active”. The IC50 (Homo sapiens, A549, 48 h) was 5.57 µM.
Turning to `S=C(NNc1ncnc2cc(-c3ccccc3)sc12)Nc1cccnc1` [Compound 25], the “Activity ranking: particularly active examples of the compounds of the invention” value is given as “particularly active”. Moreover, the IC50 (Homo sapiens, A549, 48 h) worked out at 6.44 µM.
`NC(=S)NNc1ncnc2cc(-c3ccccc3)sc12` [Compound 26]: the “Activity ranking: particularly active examples of the compounds of the invention” value was “particularly active”. Also, the IC50 (Homo sapiens, A549, 48 h) worked out at 5.75 µM.
On to `OCCCCNC(=S)NNc1ncnc2cc(-c3ccccc3)sc12` [Compound 28], for which the “Activity ranking: particularly active examples of the compounds of the invention” value was “particularly active”. Besides, the IC50 (Homo sapiens, A549, 48 h) amounted to 6.31 µM.
